Measurements from ChEMBL document CHEMBL1127588, “A structure-activity relationship study of benzylic modifications of 4-[1-(1-naphthyl)ethyl]-1H-imidazoles on alpha 1- and alpha 2-adrenergic receptors” (J Med Chem, 1994).

What was measured:
[1] = Ratio between IC50 values of alpha 1 and alpha 2 receptors
[2] = target: T1, Adrenergic receptor alpha-1 (Rattus norvegicus, UniProt P15823+P23944+P43140); assay: Tested for its binding affinity against alpha-1 receptor in rat brain membrane; format: cell membranes
T1 sequence (P15823 whole entry): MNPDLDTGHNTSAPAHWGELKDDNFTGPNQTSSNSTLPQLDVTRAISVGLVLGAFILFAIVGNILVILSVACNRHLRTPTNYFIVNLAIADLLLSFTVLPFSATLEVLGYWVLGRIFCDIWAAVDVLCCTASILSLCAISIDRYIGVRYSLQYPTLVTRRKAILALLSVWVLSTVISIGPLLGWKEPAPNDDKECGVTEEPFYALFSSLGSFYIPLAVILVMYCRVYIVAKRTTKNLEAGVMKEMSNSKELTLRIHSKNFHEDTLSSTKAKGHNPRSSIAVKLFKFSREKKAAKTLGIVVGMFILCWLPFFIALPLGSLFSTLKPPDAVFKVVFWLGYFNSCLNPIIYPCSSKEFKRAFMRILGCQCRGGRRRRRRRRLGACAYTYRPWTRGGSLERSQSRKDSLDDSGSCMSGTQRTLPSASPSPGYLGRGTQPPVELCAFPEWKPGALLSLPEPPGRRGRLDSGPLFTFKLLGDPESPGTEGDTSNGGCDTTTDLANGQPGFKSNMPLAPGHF
T1 sequence (P23944 whole entry): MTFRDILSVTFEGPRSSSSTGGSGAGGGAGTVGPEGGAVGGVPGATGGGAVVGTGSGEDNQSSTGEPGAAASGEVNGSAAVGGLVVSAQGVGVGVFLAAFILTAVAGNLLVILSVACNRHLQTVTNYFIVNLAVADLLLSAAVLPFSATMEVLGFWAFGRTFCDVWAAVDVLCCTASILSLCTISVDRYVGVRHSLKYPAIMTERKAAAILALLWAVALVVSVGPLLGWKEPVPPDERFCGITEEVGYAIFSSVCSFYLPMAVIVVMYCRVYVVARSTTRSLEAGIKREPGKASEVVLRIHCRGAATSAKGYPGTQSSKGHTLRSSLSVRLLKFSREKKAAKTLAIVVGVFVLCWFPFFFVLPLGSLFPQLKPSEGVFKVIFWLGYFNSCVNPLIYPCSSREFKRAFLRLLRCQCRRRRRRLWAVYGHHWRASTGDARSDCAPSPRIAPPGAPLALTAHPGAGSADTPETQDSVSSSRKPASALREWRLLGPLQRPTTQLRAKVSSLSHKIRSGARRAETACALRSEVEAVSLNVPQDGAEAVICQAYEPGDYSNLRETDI
T1 sequence (P43140 whole entry): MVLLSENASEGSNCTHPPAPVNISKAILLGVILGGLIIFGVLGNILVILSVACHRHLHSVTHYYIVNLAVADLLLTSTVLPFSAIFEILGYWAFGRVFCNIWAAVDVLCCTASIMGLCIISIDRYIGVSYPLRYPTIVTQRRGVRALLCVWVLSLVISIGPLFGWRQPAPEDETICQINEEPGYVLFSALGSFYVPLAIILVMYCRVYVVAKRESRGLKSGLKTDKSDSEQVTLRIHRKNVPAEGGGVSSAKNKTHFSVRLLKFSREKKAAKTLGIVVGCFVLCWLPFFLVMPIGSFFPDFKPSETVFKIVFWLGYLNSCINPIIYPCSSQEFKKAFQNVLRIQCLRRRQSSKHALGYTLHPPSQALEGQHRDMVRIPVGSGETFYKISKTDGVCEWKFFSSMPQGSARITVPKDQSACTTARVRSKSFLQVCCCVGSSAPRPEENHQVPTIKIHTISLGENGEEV

[3] = target: T2, Adrenergic receptor alpha-2 (Rattus norvegicus, UniProt P22086+P19328+P22909); assay: Tested for its binding affinity against alpha-2 receptor in rat brain membrane; format: cell membranes
T2 sequence (P22086 whole entry): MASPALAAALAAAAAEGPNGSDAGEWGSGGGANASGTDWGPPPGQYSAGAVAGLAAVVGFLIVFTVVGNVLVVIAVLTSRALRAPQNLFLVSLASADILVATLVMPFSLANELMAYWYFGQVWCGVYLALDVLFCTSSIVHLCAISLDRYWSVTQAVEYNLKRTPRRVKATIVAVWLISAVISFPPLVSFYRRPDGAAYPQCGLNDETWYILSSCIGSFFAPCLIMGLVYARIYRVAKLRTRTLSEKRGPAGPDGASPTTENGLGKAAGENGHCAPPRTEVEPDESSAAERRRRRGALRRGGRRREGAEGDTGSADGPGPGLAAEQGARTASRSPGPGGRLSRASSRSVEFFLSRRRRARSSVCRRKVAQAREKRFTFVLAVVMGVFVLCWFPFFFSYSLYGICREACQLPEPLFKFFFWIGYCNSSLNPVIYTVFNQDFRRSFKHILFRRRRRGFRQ
T2 sequence (P19328 whole entry): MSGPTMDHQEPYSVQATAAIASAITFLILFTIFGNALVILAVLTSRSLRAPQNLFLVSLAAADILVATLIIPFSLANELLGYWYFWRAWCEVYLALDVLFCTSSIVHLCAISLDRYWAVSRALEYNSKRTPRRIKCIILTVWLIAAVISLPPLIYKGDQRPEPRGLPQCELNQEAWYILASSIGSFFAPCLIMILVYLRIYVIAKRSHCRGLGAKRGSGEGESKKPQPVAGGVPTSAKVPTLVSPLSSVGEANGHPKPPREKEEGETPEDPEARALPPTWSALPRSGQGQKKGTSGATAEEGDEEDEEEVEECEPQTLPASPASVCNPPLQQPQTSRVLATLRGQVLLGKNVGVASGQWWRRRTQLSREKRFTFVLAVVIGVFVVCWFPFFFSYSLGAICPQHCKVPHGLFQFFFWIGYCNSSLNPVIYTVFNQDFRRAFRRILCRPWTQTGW
T2 sequence (P22909 whole entry): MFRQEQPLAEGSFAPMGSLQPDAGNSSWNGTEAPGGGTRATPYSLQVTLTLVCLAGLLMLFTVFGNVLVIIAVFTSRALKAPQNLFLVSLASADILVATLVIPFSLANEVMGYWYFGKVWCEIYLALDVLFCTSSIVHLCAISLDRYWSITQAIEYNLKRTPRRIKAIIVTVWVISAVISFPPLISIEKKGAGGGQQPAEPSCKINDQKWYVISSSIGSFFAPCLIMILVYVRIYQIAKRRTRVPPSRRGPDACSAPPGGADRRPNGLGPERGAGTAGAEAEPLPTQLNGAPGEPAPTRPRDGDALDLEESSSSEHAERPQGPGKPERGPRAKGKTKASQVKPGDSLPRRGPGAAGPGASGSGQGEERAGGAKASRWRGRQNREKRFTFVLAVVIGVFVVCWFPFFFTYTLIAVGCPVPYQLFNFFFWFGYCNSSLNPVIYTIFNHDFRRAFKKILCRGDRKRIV

[4] = target: Adrenergic receptor alpha (Rattus norvegicus) (UniProt P15823+P23944+P43140+P22086+P19328+P22909); assay: Ratio between EC50 values of alpha 1 and alpha 2 receptors; format: protein assay

| SMILES | Ratio [1] | Ki [2] [µM] | Ki [3] [µM] | Ratio [4] |
| --- | --- | --- | --- | --- |
| CC(c1c[nH]cn1)c1cccc2ccccc12 (stereo in doubt; S-(-)-2) | 22.3 |  |  |  |
| Cl.OC(c1c[nH]cn1)(c1cccc2ccccc12)C(F)(F)F (stereo unspecified) | > 2 | > 50 | > 24.539 |  |
| CC(c1c[nH]cn1)c1cccc2ccccc12 (stereo in doubt; S-(+)-2) | 41.9 |  |  | 752 |
| O=C(O)C(=O)O.O=C(c1c[nH]cn1)c1cccc2ccccc12 | 0.5 | 15.902 | 31.754 |  |
| CC(c1c[nH]cn1)c1cccc2ccccc12 (stereo in doubt; 2) | 18.2 |  |  | 643 |
